These results are taken from USRE48461E1, “Modulation of androgen receptor expression” (Ionis Pharmaceuticals, Inc., priority 2012, dated 2021).

In general, IC50 refers to the concentration at which inhibition is half-maximal. Read a low IC50 as higher potency. A word on the % inhibition: it is the share of the control response that was lost under treatment. A high value points to strong suppression.

Series [1] has as its system AR mRNA. Put plainly: AR mRNA in LnCaP cells by free uptake (hAR_LTS00943). Type of series: cell-based, human. As to conditions: 24 hrs. Here is the method: Cells were plated at a concentration of 4,000 cells/well in 96-well plates. ISIS oligonucleotides, specified in Table 68, were added individually at 0.02 μM, 0.10 μM, 0.50 μM, 2.50 μM, or 10.00 μM. After an incubation period of 24 hrs, mRNA levels were measured using primer probe set hAR_LTS00943.

Series [2] relates to AR mRNA. The series can be described thus: Dose-dependent antisense inhibition of human AR in HuVEC cells (electroporation, qRT-PCR RTS3559, IC50). Type of series: cell-based. To be noted: for inhibition of AR mRNA at 46.9 nM: 46.9 nM ASO; for inhibition of AR mRNA at 187.5 nM: 187.5 nM ASO; for inhibition of AR mRNA at 750.0 nM: 750.0 nM ASO; for inhibition of AR mRNA at 3000.0 nM: 3000.0 nM ASO. In a few lines:
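HuVEC cells dosed with antisense oligonucleotides by electroporation and treated approximately 16 hours. AR mRNA quantified by real-time qPCR with primer probe set RTS3559 and normalised to total RNA by RIBOGREEN; IC50 from dose-response.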
In general terms: In qPCR the cycle at which signal appears reflects the starting amount.

The test system of series [3] is AR mRNA. Put plainly: Antisense inhibition of human AR in HuVEC cells, single concentration (electroporation, qRT-PCR RTS3559). Type of series: cell-based. As to conditions: ~24 h. In a few lines: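 AR mRNA levels were measured with human primer-probe set RTS3559 and adjusted for total RNA (RIBOGREEN). Cells were HuVEC, with each antisense oligonucleotide delivered by electroporation at one concentration.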

Where [4] appears, read: 62.5 nM, HuVEC, ~16 h, Table 10.
Where [5] appears, read: 125.0 nM, HuVEC, ~16 h, Table 10.
Setting [6] is: 500.0 nM, HuVEC, ~16 h, Table 10.
Where [7] appears, read: 1000.0 nM, HuVEC, ~16 h, Table 10.
Setting [8] is: 46.9 nM, HuVEC, ~16 h, Table 15.
[9] abbreviates: 187.5 nM, HuVEC, ~16 h, Table 15.
[10] abbreviates: 750.0 nM, HuVEC, ~16 h, Table 15.
The mark [11] stands for this setting: 3000.0 nM, HuVEC, ~16 h, Table 15.
[12] abbreviates: 31.25 nM, HuVEC, ~16 h, Table 8.
The mark [13] stands for this setting: 125.0 nM, HuVEC, ~16 h, Table 8.
[14] abbreviates: 500.0 nM, HuVEC, ~16 h, Table 8.
The mark [15] stands for this setting: 1000.0 nM, HuVEC, ~16 h, Table 8.

Oligonucleotides are written 5' to 3', each unit as a sugar letter and its base; * is a phosphorothioate linkage, no mark a phosphodiester; rarer units and linkages stand in square brackets, end groups in braces. Plain capitals give the bases only. e = 2'-O-(2-methoxyethyl) (MOE); k = constrained ethyl (cEt); [5mC] = 5-methylcytosine; d = 2'-deoxy (DNA)

For the substance “579667 (antisense eT*kT*kG*eA*eT*kT*kT*dA*dA*dT*dG*dG*dT*dT*kG*k[5mC]) [compound 579667]”, the “Percent inhibition of AR mRNA” value turned out to be 0% with AR mRNA [1] (0.02 μM), 0% with AR mRNA [1] (0.1 μM), 8% with AR mRNA [1] (0.5 μM) and 40% in the series with AR mRNA [1] (10 μM). The “percent inhibition of AR” value came to 30% in the series on AR mRNA [2] (setting [4]), 29% in the series with AR mRNA [2] (setting [5]), 36% with AR mRNA [2] (setting [6]) and 76% in the series on AR mRNA [2] (setting [7]). The substance further had a concentration for half-maximal inhibition (IC50) in the series on AR mRNA [2] (HuVEC, ~16 h, Table 10) of 411 nM.

With “579666 (antisense eT*kG*kA*eT*eT*kT*kA*dA*dT*dG*dG*dT*dT*dG*k[5mC]*kA) [compound 579666]”, the “Percent inhibition of AR mRNA” value amounted to 0% with AR mRNA [1] (0.02 μM), 8% with AR mRNA [1] (0.1 μM), 30% in the series with AR mRNA [1] (0.5 μM) and 68% in the series on AR mRNA [1] (10 μM). Moreover, the “percent inhibition of AR” value was 33% with AR mRNA [2] (setting [4]), 34% in the series on AR mRNA [2] (setting [5]), 64% with AR mRNA [2] (setting [6]) and 80% in the series with AR mRNA [2] (setting [7]). The substance further displayed an IC50 with AR mRNA [2] (HuVEC, ~16 h, Table 10) of 229 nM.

For “586124 (kG*kA*kT*dT*dT*dA*dA*dT*dG*dG*dT*dT*dG*k[5mC]*kA*kA; further chemistry not given here) [compound 586124]”, the “% inhibition” value in the series on AR mRNA [3] (1,000 nM ASO, Table 13) is recorded as 82%. For the same substance, the “Percent inhibition of AR mRNA” value came out at 0% with AR mRNA [1] (0.02 μM), 0% in the series on AR mRNA [1] (0.1 μM), 19% in the series with AR mRNA [1] (0.5 μM) and 82% in the series with AR mRNA [1] (10 μM). For the same substance, the “percent inhibition of AR” value worked out at 28% with AR mRNA [2] (setting [8]), 47% in the series with AR mRNA [2] (setting [9]), 84% in the series with AR mRNA [2] (setting [10]) and 94% in the series on AR mRNA [2] (setting [11]). Besides, the IC50 with AR mRNA [2] (HuVEC cells, electroporation) amounted to 130 nM; in the series on AR mRNA [2] (HuVEC, ~16 h, Table 15), 130 nM. Further, in the series with AR mRNA [2] (HuVEC cells, electroporation), the “inhibition of AR mRNA at 46.9 nM” value came out at 28%. Also, in the series with AR mRNA [2] (HuVEC cells, electroporation), the “inhibition of AR mRNA at 187.5 nM” value is 47%. The “inhibition of AR mRNA at 750.0 nM” value in the series on AR mRNA [2] (HuVEC cells, electroporation) came out at 84%. The “inhibition of AR mRNA at 3000.0 nM” value in the series on AR mRNA [2] (HuVEC cells, electroporation) is 94%.

Regarding “569221 (antisense eT*eG*kA*kT*kT*dT*dA*dA*dT*dG*dG*dT*dT*kG*k[5mC]*kA) [compound 569221]”, the “Percent inhibition of AR mRNA” value came to 18% in the series with AR mRNA [1] (0.02 μM), 31% with AR mRNA [1] (0.1 μM), 49% in the series with AR mRNA [1] (0.5 μM) and 91% in the series with AR mRNA [1] (10 μM). In addition, the “percent inhibition of AR” value was 12% in the series with AR mRNA [2] (62.5 nM, HuVEC, ~16 h, Table 12); 32% in the series on AR mRNA [2] (125.0 nM, HuVEC, ~16 h, Table 12); 57% in the series on AR mRNA [2] (500.0 nM, HuVEC, ~16 h, Table 12); 73% in the series with AR mRNA [2] (1000.0 nM, HuVEC, ~16 h, Table 12). For the same substance, the midpoint of inhibition in the series on AR mRNA [2] (HuVEC, ~16 h, Table 12), the IC50, lay at 294 nM.

For the substance “586227 (kT*kG*kA*kT*kT*dT*dA*dA*dT*dG*dG*dT*dT*kG*k[5mC]*kA; antisense) [compound 586227]”, in the series on AR mRNA [3] (1,000 nM ASO, Table 13), the “% inhibition” value turned out to be 87%. The “Percent inhibition of AR mRNA” value in the series on AR mRNA [1] (0.02 μM) is 0%; in the series on AR mRNA [1] (0.1 μM), 0%; in the series with AR mRNA [1] (0.5 μM), 14%; in the series with AR mRNA [1] (10 μM), 59%. For the same substance, the “percent inhibition of AR” value with AR mRNA [2] (setting [8]) was 20%; in the series with AR mRNA [2] (setting [9]) it was 60%; in the series with AR mRNA [2] (setting [10]) it was 88%; in the series on AR mRNA [2] (setting [11]) it was 96%. The half-inhibitory concentration (IC50) with AR mRNA [2] (HuVEC cells, electroporation) is 130 nM; in the series with AR mRNA [2] (HuVEC, ~16 h, Table 15), 130 nM. The “inhibition of AR mRNA at 46.9 nM” value in the series on AR mRNA [2] (HuVEC cells, electroporation) is listed as 20%. Besides, in the series on AR mRNA [2] (HuVEC cells, electroporation), the “inhibition of AR mRNA at 187.5 nM” value came to 60%. The “inhibition of AR mRNA at 750.0 nM” value with AR mRNA [2] (HuVEC cells, electroporation) is reported as 88%. Also, the “inhibition of AR mRNA at 3000.0 nM” value in the series with AR mRNA [2] (HuVEC cells, electroporation) is listed as 96%.

Turning to “569213 (antisense kT*kG*kA*dT*dT*dT*dA*dA*dT*dG*dG*dT*kT*kG*k[5mC]*eA) [compound 569213]”, in the series on AR mRNA [3] (250 nM ASO, Table 7), the “% inhibition” value was 69%. The “Percent inhibition of AR mRNA” value in the series with AR mRNA [1] (0.02 μM) amounted to 3%; with AR mRNA [1] (0.1 μM) it was 0%; in the series on AR mRNA [1] (0.5 μM), 31%; in the series on AR mRNA [1] (10 μM), 78%. Moreover, the “percent inhibition of AR” value in the series on AR mRNA [2] (setting [12]) is reported as 35%; in the series with AR mRNA [2] (62.5 nM, HuVEC, ~16 h, Table 8) it was 53%; with AR mRNA [2] (setting [13]), 65%; in the series with AR mRNA [2] (setting [14]) it was 94%; with AR mRNA [2] (setting [15]), 96%. In the series with AR mRNA [2] (HuVEC, ~16 h, Table 8), this substance showed an IC50 of 60 nM.

Turning to “569227 (antisense eT*eG*kA*kT*kT*dT*dA*dA*dT*dG*dG*dT*kT*kG*k[5mC]*eA) [compound 569227]”, the “% inhibition” value in the series on AR mRNA [3] (1,000 nM ASO, Table 13) is on record as 51%. Besides, the “Percent inhibition of AR mRNA” value turned out to be 0% in the series with AR mRNA [1] (0.02 μM), 0% with AR mRNA [1] (0.1 μM), 4% with AR mRNA [1] (0.5 μM) and 55% in the series on AR mRNA [1] (10 μM). For the same substance, the “percent inhibition of AR” value in the series with AR mRNA [2] (31.25 nM, HuVEC, ~16 h, Table 14) came to 13%; in the series on AR mRNA [2] (setting [4]), 8%; in the series with AR mRNA [2] (62.5 nM, HuVEC, ~16 h, Table 14), 22%; in the series on AR mRNA [2] (setting [5]), 40%; in the series with AR mRNA [2] (125.0 nM, HuVEC, ~16 h, Table 14), 45%; with AR mRNA [2] (setting [6]), 51%. Besides, the “percent inhibition of AR” value stood at 61% in the series with AR mRNA [2] (500.0 nM, HuVEC, ~16 h, Table 14); 73% with AR mRNA [2] (setting [7]); 74% with AR mRNA [2] (1000.0 nM, HuVEC, ~16 h, Table 14). The IC50 in the series on AR mRNA [2] (HuVEC, ~16 h, Table 10) came to 388 nM; with AR mRNA [2] (HuVEC, ~16 h, Table 14) it was 255 nM.

As to “569216 (antisense eT*kG*kA*kT*dT*dT*dA*dA*dT*dG*dG*dT*kT*kG*k[5mC]*eA) [compound 569216]”, the “% inhibition” value in the series on AR mRNA [3] (250 nM ASO, Table 7) is given as 68%. Also, the “Percent inhibition of AR mRNA” value with AR mRNA [1] (0.02 μM) was determined as 15%; with AR mRNA [1] (0.1 μM) it was 17%; in the series on AR mRNA [1] (0.5 μM), 49%; in the series on AR mRNA [1] (10 μM) it was 82%. Besides, the “percent inhibition of AR” value in the series on AR mRNA [2] (setting [12]) is given as 38%; in the series on AR mRNA [2] (62.5 nM, HuVEC, ~16 h, Table 8) it was 51%; in the series on AR mRNA [2] (setting [13]) it was 68%; with AR mRNA [2] (setting [14]), 91%; in the series on AR mRNA [2] (setting [15]), 96%. For the same substance, half-maximal inhibition with AR mRNA [2] (HuVEC, ~16 h, Table 8) (IC50) required 50 nM.
